Measured values from PMC9995496, “A screen for MeCP2-TBL1 interaction inhibitors using a luminescence-based assay” (Scientific Reports, 2023).
Ends that are not written are not given here. * marks the point of attachment. Biotin = O=C1N[C@H]2[C@H](CS[C@H]2CCCCC(=O)*)N1

These compounds were tested against T1, MeCP2-TBL1 interaction (MeCP2-SmBiT / TBL1-LgBiT) (Mus musculus, UniProt Q9QXE7) (assay: MeCP2-TBL1 NanoLuc luciferase complementation assay (cell-free, extracts of transfected HEK293 cells)). Conditions: peptide at 20 µM, n = 2.
T1 construct: expressed in transfected cells; crude lysate used as a cell-free assay
T1 sequence (Q9QXE7 166-527): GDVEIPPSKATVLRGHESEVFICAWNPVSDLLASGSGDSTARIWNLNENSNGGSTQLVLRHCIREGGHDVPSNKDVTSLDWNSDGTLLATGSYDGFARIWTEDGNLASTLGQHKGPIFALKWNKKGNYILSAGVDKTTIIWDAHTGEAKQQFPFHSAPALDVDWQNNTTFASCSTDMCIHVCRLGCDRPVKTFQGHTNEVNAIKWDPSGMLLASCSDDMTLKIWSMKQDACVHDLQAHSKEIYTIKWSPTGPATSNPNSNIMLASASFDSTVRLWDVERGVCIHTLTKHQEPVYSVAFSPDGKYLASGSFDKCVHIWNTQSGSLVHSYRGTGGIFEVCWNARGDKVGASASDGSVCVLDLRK
Format: binding, human
From the text: To facilitate the discovery of inhibitors of the interaction between MeCP2 and TBL1/TBLR1, we set out to devise a simple and scalable biochemical assay for measuring the interaction between these two proteins. We initially explored the possibility of screening compound libraries using a previously established fluorescence polarization assay that depends on purified recombinant TBL1/TBLR1[26]. […] The resulting luminescence signal depends on the affinity between the two interacting proteins of interest (Fig. 1A). This method was originally developed to allow for the interrogation of protein–protein interactions in vivo. However, in order to facilitate large scale screening of chemical libraries, we adapted the assay for use as a cell-free system.
We fused the large N-terminal fragment of NanoLuc (LgBiT) to the C-terminus of the WD repeat domains of both TBL1 and TBLR1, and the small C-terminal fragment of NanoLuc (SmBiT) to the C-terminus of the C-terminal half of MeCP2 (Fig. 1B and C). This region of MeCP2 contains the NID (NCoR interaction domain)—the motif in MeCP2 that binds to TBL1/TBLR1.
The AgeI-NotI restriction fragment (encoding EGFP) was then replaced with a codon optimized SmBiT sequence to yield the MeCP2-SmBiT expression plasmid. The TBL1-LgBiT expression vector was derived from a TBL1-mCherry plasmid[25] by replacing the AgeI-NotI restriction fragment (encoding mCherry) with a codon optimized LgBiT sequence. SmBiT-PRKACA and LgBiT-PRKAR2A plasmids are commercially available (Promega, N203 and N204).
Cells were harvested after 24 h and cell pellets were stored at − 80 °C.
In the screens described here, the lysate obtained from a single 15 cm plate was used for 2.5 384-well assay plates. NanoLuc substrate (furimazine) (Promega, N1110) was diluted 1000-fold in passive lysis buffer (Promega, E1941) and added 1:1 to the lysate. Screening libraries were purchased from Asinex[40] and ApexBio (FDA-approved Drug Library, L1021). Compounds were dispensed using an Echo acoustic dispenser and tested at a final concentration of 20 µM in a total assay volume of 20 μl in 384-well plate format. DMSO was added to each well at a final concentration of 0.2% (v/v) and wells containing only DMSO were used as negative control. After 30 min incubation at room temperature, luminescence was measured on a Tecan M1000 multi-mode plate reader. Raw luminescence reads from each well on each plate were normalized to the median luminescence signal for that plate. In the ApexBio screen, the scaled and normalized PKA signal for each compound was subtracted from the MeCP2-TBL1 signal for the same compound. After plate normalization the robust SSMD (SSMD*) was calculated as described elsewhere. A threshold of SSMD* ≥ 3 was applied for discerning primary hits.
Assays were performed as described above except instead of a single concentration, a threefold serial dilution ranging from 60 to 0.03 μM was tested in triplicate for each of the compounds. Half-maximal inhibitory concentrations were calculated using global nonlinear regression by fitting the response data sets of all compounds simultaneously with a four-parameter logistic curve of log inhibitor concentration versus normalized luminescence using GraphPad Prism. During fitting, the maximum and minimum curve values were shared between the data sets.

With “control peptide with the R306C mutation: 35 amino acid MeCP2 NID peptide (residues 285-319) carrying the R306C mutation, N-terminal biotin (Biotin-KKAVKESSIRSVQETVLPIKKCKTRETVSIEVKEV; UniProt P51608 285-319, looked up, variant R306C) [reference compound]” the “effect of competitor peptide on MeCP2-TBL1 luminescence signal” value was “failed to substantially affect”.

Same assay, conditions: primary screen of Asinex library, single well per compound

In order of falling Inhibition percent:
1. Cc1ccc(=O)n(CC(=O)N2CCOC3(CC=CCN(CCc4ccccc4)C3=O)C2)n1 (stereo not drawn) [BDF_25862113]  3.93
2. O=C(N1CCC(Cc2ccc3ncccc3c2)CC1)C1(c2ccccc2)CCOCC1 [BDH_32341682]  1.41
3. CC1(C)Oc2ccccc2[C@@H]2O[C@@H]3CCN(C(=O)CCN4CCCC4=O)[C@@H]3C[C@H]21 [BDG_33901240]  0.48
4. O=C(NCCC1CCCCN1C(=O)CCN1C(=O)CCNC1=O)c1ccccc1 (stereo not drawn) [BDH_33628607]  0.45
5. CN(Cc1ccccc1)[C@@H]1[C@@H](O)[C@H](Oc2cccc(C(F)(F)F)c2)C[C@H]1NC(=O)CCN [BDG_34056156]  -1.01
6. CC(C)(NC(=O)COc1ccccc1)C(=O)N1CCC(Cc2cccc3ncccc23)CC1 [BDH_32354908]  -2.23
7. COc1cccc(Cc2cccc(C3CCCN(Cc4ccncc4)C3)n2)c1 (stereo not drawn) [BDC_27849507]  -4.87

Same assay, conditions: primary screen of the Asinex library, sheet "Sargen output Asinex library", one well per compound

In order of falling Inhibition percent:
1. CN(Cc1ccccc1)[C@@H]1[C@@H](O)[C@H](Oc2ccc(F)c(F)c2)C[C@H]1NC(=O)CC(C)(C)CC(=O)O [BDG_34135525]  1.42%
2. O=C(Cc1c[nH]c2ccccc12)N1CCC2(CC=CCN(Cc3ccc(F)cc3)C2=O)CC1 [BDE_25848651]  -0.14%
3. c1ccc(COc2cccc(CN3CCOCC(Cc4ccc5nccn5n4)C3)c2)nc1 (stereo not drawn) [BDH_32351403]  -0.41%
4. O=C1COC2(CCCN(C(=O)c3cccc4cccnc34)CC2)CN1CCc1ccccc1 (stereo not drawn) [BDH_32296359]  -0.70%
5. CC1(C(=O)N2CCOCC(Cc3ccc4cnccc4c3)C2)CCN(CCc2ccccc2)CC1 (stereo not drawn) [BDH_32362344]  -0.71%
6. CCOc1cccc2c1OC(C)(C)[C@@H]1C[C@@H]3CNCC[C@H]3O[C@@H]21 [BDG_33956280]  -0.94%
7. C[C@]12C[C@@H](Cc3ccccc3)N(CC(=O)NCCc3nc4ccccc4[nH]3)[C@H]1CCCC(=O)N2 [BDH_33616100]  -2.04%
8. COCc1nc2ccccc2n1CC(=O)N1CCCCC1C1CCN(C(=O)c2cnc(C)cn2)CC1 (stereo not drawn) [BDE_33628056]  -2.31%
9. O=C(NC1CCCC1)c1cc(C2CCCCN2C(=O)C2CCN(Cc3ccncc3)CC2)n[nH]1 (stereo not drawn) [BDE_33629993]  -2.91%
10. Oc1cccc2c1OC1(CCN(Cc3ccncc3)CC1)[C@H]1CCCO[C@H]21 [BDG_33900152]  -3.60%
11. CC(=O)N[C@@]12CN(C)CC[C@@H]1[C@@H](c1ccccc1)N(C(=O)c1cccc(Oc3ncccn3)c1)C2 [BDH_32367667]  -3.64%
12. CC1(C(=O)N2CCOCC(Cc3ccc4ccncc4c3)C2)CCN(CCc2ccccc2)CC1 (stereo not drawn) [BDH_32362347]  -4.04%

Same assay, conditions: primary screen of the Asinex library, sheet "Sargen output Asinex library", one well per compound, Batch Ref. 1

In order of falling Inhibition percent:
1. FC(F)(F)c1ccccc1Cc1cccc(C2CN(Cc3cccnc3)CCO2)n1 (stereo not drawn) [BDF_27574784]  32.27%
2. CCOc1ccc(-c2cc(C(=O)N3[C@@H](Cc4ccccc4)[C@@H]4C[C@@]5(C)[C@H](CCC[C@@H]35)N4)[nH]n2)cc1 [BDG_33504765]  12.86%
3. COc1ccc(CCC(=O)N2CCCC(c3cncc(-c4cccc(OC)c4)n3)C2)cc1 (stereo not drawn) [BDD_27924033]  11.34%
4. COc1ccccc1Cc1cccc(C2CCCN2C(=O)Cc2c[nH]c3ccccc23)n1 (stereo not drawn) [BDD_27856210]  9.99%
5. C[C@@H]1CC[C@@H]2[C@@H](C1)c1c(ccc(C(=O)NCCN(C)C)c1O)OC2(C)C [BDG_33904603]  9.91%
6. Cc1ccc(Oc2cccc(C3CN(C(=O)c4cccc(Cn5ccnc5)c4)CCO3)n2)cc1 (stereo not drawn) [BDH_32360064]  8.15%
7. NC(=O)c1cccc(-c2cccc(C3CN(C(=O)CCc4cccc(Cl)c4)CCO3)n2)c1 (stereo not drawn) [BDF_25272769]  7.95%
8. O=C(c1cc(-c2ccccc2F)n[nH]1)N1CCCCC1c1ncc(Cc2ccccc2)o1 (stereo not drawn) [BDE_33513466]  6.68%
9. Cc1nc2ccc(NC(=O)CN3CC[C@@]4(C)[C@@H]3CCCCC(=O)N4Cc3ccc(F)cc3)cc2[nH]1 [BDH_33616216]  6.38%
10. CC1(C)Oc2cc(OCCCNS(C)(=O)=O)ccc2[C@@H]2O[C@H](CCc3ccc(F)cc3)CC[C@H]21 [BDG_34121335]  5.43%
11. O=C(CCCC(=O)N1CCCCC1c1n[nH]cc1-c1ccc(C(F)(F)F)cc1)Nc1ccccn1 (stereo not drawn) [BDE_33631892]  4.13%
12. CC(=O)N[C@@]12CN(C)CC[C@@H]1[C@@H](c1ccccc1)N(CC(=O)Nc1ccc3c(c1)nc(C)n3C)C2 [BDH_33618117]  4.04%
13. CC1(C)Oc2ccc(Cl)cc2[C@@H]2O[C@@H]3CCN(CC(=O)N4CC(=O)Nc5ccccc54)C[C@@H]3C[C@H]21 [BDG_34134082]  3.72%
14. CC(=O)N1[C@H](Cc2ccccc2)[C@@H]2C[C@@]3(C)[C@H](CCC[C@@H]13)N2C(=O)CNC(=O)c1ccccc1 [BDG_33503016]  3.61%
15. COc1cccc(N2CCC(O)(CN3C[C@@H](c4cccc(F)c4)[C@@]4(CCCC(=O)N4)C3)CC2)c1 [BDH_33611042]  2.32%
16. Cc1cc(Oc2ccccc2F)nc(C2CCN(C(=O)c3cccc(-c4cncnc4)n3)CC2)n1 [BDH_32368986]  1.94%
17. Cc1cc(CCCC(=O)N2CCCC2c2cccc(Nc3nncs3)n2)ccc1F (stereo not drawn) [BDE_26594959]  1.13%
18. O=C(CN1CCc2ccccc2C1)N1CCCC2(CC1)CN(c1cccc(Cl)c1)C(=O)O2 (stereo not drawn) [BDH_32295686]  0.75%
19. O=C(CC1CCCCC1)N1CCOC(c2nccnc2-c2cccc(C(F)(F)F)c2)C1 (stereo not drawn) [BDF_25939482]  0.68%
20. CN(C)CCOc1cccc2c1OC(C)(C)[C@H]1C[C@H]3CN(C(=O)CCCC(=O)O)CC[C@@H]3O[C@H]21 [BDG_34129529]  0.07%
21. COCCNC(=O)c1sc2ncccc2c1C1CCN(Cc2ccc3ncccc3c2)C1 (stereo not drawn) [BDF_24020930]  -0.43%
22. Cn1c(COCC(=O)N2[C@H](Cc3ccccc3)C[C@]3(C)NC(=O)CCC[C@H]23)nc2ccccc21 [BDG_33628430]  -0.52%
23. Cc1nc(C2CCN(C(=O)c3cccnc3)CC2)nc2c1CCCN2CCc1ccccc1 [BDE_27576245]  -0.64%
24. Cc1ccc(C2(C(=O)N3CCC(CC(=O)Nc4ccc5nccnc5c4)CC3)CCOCC2)cc1 [BDH_32368328]  -1.52%
25. C[C@]12C[C@@H](Cc3ccccc3)N(C(=O)CCCNc3ncnc4ccccc34)[C@H]1CCCC(=O)N2 [BDG_33628681]  -1.67%
26. C[C@@]12C[C@H]3[C@H](Cc4ccccc4)N[C@@H]1CCC[C@@H]2N3C(=O)c1ccnc(Cc2ccccc2F)c1 [BDG_33507770]  -1.87%
27. CCN(CC)C(=O)CN1CCOC(c2c(C(=O)N3CCOCC3)sc3ncccc23)C1 (stereo not drawn) [BDF_24025276]  -4.29%
28. Cc1ncc(C(=O)NCc2ccccc2)c(CC2CCN(C(=O)C3CCCCC3)CC2)n1 [BDD_23848427]  -4.61%
